This is an account of results in paper PMC3908613 (Bioscience Reports, 2014).

One assay deals with T1, GST-Lok (Homo sapiens, UniProt O94804).
T1 construct: GST; purchased DSTT
As to the kind of experiment: Kinase assay for recombinant Lok. Format: biochemical. As to conditions: 25 μM ATP, 100 μM AXLTIDE substrate.

The target in the next assay is T2, rSlk (Homo sapiens, UniProt Q9H2G2).
T2 construct: purchased Millipore
In words: Kinase assay for recombinant Slk. Format: biochemical. As to conditions: 25 μM ATP, bovine histone H1 substrate.

The subject of another assay is BMDC. As to the kind of experiment: Cytokine production by LPS-stimulated BMDC (ELISA). Format: cell-based, C57BL/6 mice. As to the method:
DCs were generated from the bone marrow or the spleen of C57BL/6 mice as previously described. Briefly, bone marrow cells were cultured for 7 days at 37°C, 5% (v/v) CO2 in complete RPMI medium supplemented with 10 ng/ml recombinant granulocyte-macrophage colony-stimulating factor (GM-CSF; Peprotech). Spleen cells were cultured for 14 days at 37°C, 5% CO2 in complete RPMI containing 10 ng/ml GM-CSF and 1 ng/ml TGFβ (transforming growth factor-β; R&D Systems). NIH3T3 cells (European Cell Culture Collection) were cultured in DMEM (Dulbecco's modified Eagle's medium) supplemented with glutamine, penicillin, streptomycin and 10% (v/v) calf serum (Invitrogen). […] The amounts of TNFα (tumour necrosis factor α), IL6 (interleukin 6) and IL10 in the supernatant were measured using ELISA kits specific for each cytokine (TNFα, IL6; Peprotech, IL10; R&D Systems).
(In general: An ELISA detects its analyte on a solid surface through an enzyme-linked reagent.)

For the next assay, the target named is T3, Rsk2 (Mus musculus, UniProt P18654).
T3 construct: recovered on streptavidin beads following desthiobiotin-ATP labelling of DC lysates including Rsk2, Erk1/2 and p38; endogenous in cells; host or cells: mouse spleen-derived dendritic cells (SDC), lysate
T3 sequence (P18654 whole entry): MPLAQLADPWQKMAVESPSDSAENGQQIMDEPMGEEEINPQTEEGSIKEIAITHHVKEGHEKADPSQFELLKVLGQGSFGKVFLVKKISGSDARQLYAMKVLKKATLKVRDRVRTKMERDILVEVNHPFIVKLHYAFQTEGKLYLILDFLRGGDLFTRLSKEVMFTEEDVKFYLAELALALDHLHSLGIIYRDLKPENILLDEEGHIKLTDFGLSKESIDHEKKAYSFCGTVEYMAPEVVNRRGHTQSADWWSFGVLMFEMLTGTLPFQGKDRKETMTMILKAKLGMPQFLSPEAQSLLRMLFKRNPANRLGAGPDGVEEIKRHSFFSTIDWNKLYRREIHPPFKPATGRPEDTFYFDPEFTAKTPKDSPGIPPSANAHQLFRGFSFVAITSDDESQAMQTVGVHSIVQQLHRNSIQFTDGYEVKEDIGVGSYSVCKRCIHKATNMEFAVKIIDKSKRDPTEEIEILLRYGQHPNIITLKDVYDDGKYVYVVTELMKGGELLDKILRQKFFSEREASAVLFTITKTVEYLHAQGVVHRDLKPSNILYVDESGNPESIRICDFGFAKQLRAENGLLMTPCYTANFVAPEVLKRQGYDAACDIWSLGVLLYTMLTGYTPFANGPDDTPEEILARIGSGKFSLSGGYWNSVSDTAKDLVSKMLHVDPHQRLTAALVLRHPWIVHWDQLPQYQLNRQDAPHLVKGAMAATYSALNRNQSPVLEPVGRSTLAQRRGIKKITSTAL
As to the kind of experiment: Desthiobiotin-ATP probe capture on streptavidin beads, Western blot. In kind it is binding, C57BL/6 mice. As to conditions: 10 μM inhibitor, DC lysate. (A western blot detects proteins with antibodies after separation by electrophoresis.)

The target in assay [1] is T4, PLK1 (Mus musculus, UniProt Q07832).
T4 construct: endogenous in cells; host or cells: mouse spleen-derived dendritic cells (SDC), lysate
T4 sequence (Q07832 whole entry): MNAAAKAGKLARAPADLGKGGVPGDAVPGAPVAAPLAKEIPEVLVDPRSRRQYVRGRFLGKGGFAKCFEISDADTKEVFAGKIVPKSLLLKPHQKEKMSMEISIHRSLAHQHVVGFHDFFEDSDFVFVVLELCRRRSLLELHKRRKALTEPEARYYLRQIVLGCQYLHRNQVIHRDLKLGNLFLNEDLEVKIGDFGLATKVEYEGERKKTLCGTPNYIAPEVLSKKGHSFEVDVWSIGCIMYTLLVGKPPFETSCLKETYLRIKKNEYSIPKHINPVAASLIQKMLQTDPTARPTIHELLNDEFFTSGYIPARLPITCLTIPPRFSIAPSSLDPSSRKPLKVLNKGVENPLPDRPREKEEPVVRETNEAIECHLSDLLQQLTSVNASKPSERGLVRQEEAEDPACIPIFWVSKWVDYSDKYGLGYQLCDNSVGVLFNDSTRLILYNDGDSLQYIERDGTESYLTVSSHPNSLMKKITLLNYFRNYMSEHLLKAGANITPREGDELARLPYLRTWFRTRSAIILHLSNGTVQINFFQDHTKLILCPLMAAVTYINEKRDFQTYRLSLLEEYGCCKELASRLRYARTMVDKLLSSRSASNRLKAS
The assay is described as above. Conditions: 10 μM inhibitor, DC lysate. In kind it is binding, C57BL/6 mice. As to the method:
SDC were cultured for at least 14 days in RPMI (without arginine and lysine, custom-made by Biosera) containing 10% dialysed FCS (Hyclone) supplemented with 84 mg/l of L-arginine (Sigma) and 40 mg/l L-lysine (Sigma) for the ‘light’ medium or 84 mg/l of L-arginine ^13C6 or ^13C10 and 40 mg/l L-lysine ^13C6 (Cambridge Isotope Laboratory) for the ‘heavy’ medium. Equal numbers (2×10^7) of ‘light’ or ‘heavy’ labelled SDCs were incubated in RPMI containing 0.5% FCS for 3 h in 15 cm dishes. The cells were lysed in the lysis buffer provided in the kit (Pierce). […] Labelling with the desthiobiotin ATP probe, and precipitation with streptavidin beads were performed according to the manufacturer's instructions (Pierce kinase enrichment kit or ActivX™). Equal amount of streptavidin precipitates were separated by electrophoresis as described above and probed with antibodies against Rsk2, Lok (Bethyl), Slk (Bethyl), PLK1 (Calbiochem), p38, Erk2 and Mst1 (from Cell Signaling).

A further assay addresses T5, Lok (Mus musculus, UniProt O55098).
T5 construct: Mst1, Lok and Slk were immunoprecipated from 150 μg, 850 μg and 1 mg of cell lysates respectively; endogenous in cells; host or cells: mouse bone-marrow-derived dendritic cells (BMDC), immunoprecipitate
As to the kind of experiment: Activity of Lok immunoprecipitated from BMDC. Format: biochemical, C57BL/6 mice. Conditions: immunoprecipitates treated with 1 μM D1870; resting and LPS-stimulated DC. As to the method: (§1) Equal numbers of BMDC (1×10^7/dish) were incubated in 15 cm dishes in RPMI supplemented with 0.3% FCS for 3 h at 37°C then incubated for 30 min with or without 50 ng/ml LPS. The cells were washed once in cold PBS and lysed in the lysis buffer described above. Mst1, Lok and Slk were immunoprecipated from 150 μg, 850 μg and 1 mg of cell lysates respectively with 2 μg of anti-MST1 (Cell Signalling), anti-Slk (Bethyl) or anti-Lok (Bethyl) or control IgG (Santa Cruz Biotech) coupled to G-protein Sepharose (Amersham) for 1 h at 4°C. […] Kinase assays were performed as described above.
(§2) A combination of SILAC and nucleotide acyl
(§3) Alexander J. EDGAR*, Matthias TROST†, Colin WATTS*1 and Rossana ZARU*1
(§4) *Division of Cell Signalling and Immunolog y, University of Dundee, Dow Street, Dundee DD1 5EH, U.K., and †MRC Protein Phosphor ylation and Ubiquitylation Unit, College of Life Sciences, University of Dundee, Dow Street, Dundee DD1 5EH, U.K.
(§5) Supplementary Table S1 is available at http://www.bioscirep.
(§6) Mst1, Lok and Slk activities in DC either unstimulated or stimulated with LPS (50 ng/ml) for 30 min at 37 ◦ C. Immuno- […]
(§7) of triplicate stimulations. *P < 0.05, **P < 0.01, ***P < 0.001, ns not signiﬁcant.
(§8) 1 Correspondence may be addressed to either of these authors (email c.watts@dundee.ac.uk or r.zaru@dundee.ac.uk). […]

The target in a further assay is T6, Slk (Mus musculus, UniProt O54988).
T6 construct: Mst1, Lok and Slk were immunoprecipated from 150 μg, 850 μg and 1 mg of cell lysates respectively; endogenous in cells; host or cells: mouse bone-marrow-derived dendritic cells (BMDC), immunoprecipitate
As to the kind of experiment: Activity of Slk immunoprecipitated from BMDC. In kind it is biochemical, C57BL/6 mice. Conditions: immunoprecipitates treated with 1 μM D1870; resting and LPS-stimulated DC. As to the method:
as §1, §2, §3, §4, §5, §6, §7, §8

A further assay deals with DC. In words: Actin cytoskeleton organisation in DC (confocal microscopy). In kind it is cell-based, C57BL/6 mice. Conditions: 4 μM D1870 or 2 μM BIX, 1h30 at 37°C. As to the method: 2 μMBIXfor1h30at37◦ C. Cells were ﬁxed in 4 % (v/v) paraformalde-hyde for 15 min, permeabilized with 0.1 % Triton for 5 min and stained with phalloidin-Alexa 555 (Invitrogen) and anti-vinculin antibody (Sigma) followed by goat anti-mouse Alexa 488 antibody (invitrogen). Cells were analysed on a Zeiss700 confocal microscope. V inculin (green) and phal-loidin (red). Error bar 10 μm. Images are representative of three inde- […]
© 2014 The Author(s) This is an Open Access ar ticle distributed under the terms of the Creative Commons Attribution Licence (CC-BY) (http://creativecommons.org/licenses/by/3.0/)c which permits unrestricted use, distribution and reproduction in any medium, provided the original work is properly cited.
(1 picture or pasted object on this page, not shown here)

For assay [2], the system named is PLK1. Conditions: cited from earlier work.
In the next assay the test system is Aurora B. As to conditions: cited from earlier work.
The mark [3] stands for this setting: LPS 50 ng/ml, 18 h, increasing concentrations of inhibitor.

One may read the IC50 as the concentration needed to halve the response being measured.

T2 sequence (Q9H2G2 whole entry): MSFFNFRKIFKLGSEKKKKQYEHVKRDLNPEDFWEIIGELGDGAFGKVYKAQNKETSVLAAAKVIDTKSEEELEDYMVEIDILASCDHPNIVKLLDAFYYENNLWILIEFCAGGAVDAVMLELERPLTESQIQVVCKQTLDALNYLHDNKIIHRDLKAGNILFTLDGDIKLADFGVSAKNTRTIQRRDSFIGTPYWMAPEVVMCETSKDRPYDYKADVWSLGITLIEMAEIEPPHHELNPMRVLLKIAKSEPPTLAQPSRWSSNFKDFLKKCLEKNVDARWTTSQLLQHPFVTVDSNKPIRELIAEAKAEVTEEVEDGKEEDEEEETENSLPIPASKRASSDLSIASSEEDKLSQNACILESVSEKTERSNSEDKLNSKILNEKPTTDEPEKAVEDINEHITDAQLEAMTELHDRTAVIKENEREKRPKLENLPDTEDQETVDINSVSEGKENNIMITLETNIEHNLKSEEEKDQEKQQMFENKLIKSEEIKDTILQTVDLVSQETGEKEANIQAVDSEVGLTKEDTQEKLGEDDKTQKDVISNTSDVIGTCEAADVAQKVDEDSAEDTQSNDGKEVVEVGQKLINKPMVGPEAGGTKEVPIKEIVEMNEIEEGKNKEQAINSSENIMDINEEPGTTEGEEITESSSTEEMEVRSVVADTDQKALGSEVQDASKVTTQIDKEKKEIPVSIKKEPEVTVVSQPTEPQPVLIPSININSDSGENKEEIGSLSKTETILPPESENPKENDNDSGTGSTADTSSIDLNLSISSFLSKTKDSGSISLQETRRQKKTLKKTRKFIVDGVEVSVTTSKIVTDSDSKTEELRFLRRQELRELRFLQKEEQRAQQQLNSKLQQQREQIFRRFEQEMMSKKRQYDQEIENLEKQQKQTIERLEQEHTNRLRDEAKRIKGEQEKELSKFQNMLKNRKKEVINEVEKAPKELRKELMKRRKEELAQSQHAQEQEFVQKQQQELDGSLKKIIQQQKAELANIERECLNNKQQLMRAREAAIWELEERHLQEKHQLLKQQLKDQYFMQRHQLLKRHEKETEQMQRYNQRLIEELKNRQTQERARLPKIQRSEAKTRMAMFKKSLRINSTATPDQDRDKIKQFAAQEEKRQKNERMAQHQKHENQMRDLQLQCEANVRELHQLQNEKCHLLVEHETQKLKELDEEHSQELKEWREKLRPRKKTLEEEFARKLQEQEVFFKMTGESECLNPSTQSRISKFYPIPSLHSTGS
T1 sequence (O94804 whole entry): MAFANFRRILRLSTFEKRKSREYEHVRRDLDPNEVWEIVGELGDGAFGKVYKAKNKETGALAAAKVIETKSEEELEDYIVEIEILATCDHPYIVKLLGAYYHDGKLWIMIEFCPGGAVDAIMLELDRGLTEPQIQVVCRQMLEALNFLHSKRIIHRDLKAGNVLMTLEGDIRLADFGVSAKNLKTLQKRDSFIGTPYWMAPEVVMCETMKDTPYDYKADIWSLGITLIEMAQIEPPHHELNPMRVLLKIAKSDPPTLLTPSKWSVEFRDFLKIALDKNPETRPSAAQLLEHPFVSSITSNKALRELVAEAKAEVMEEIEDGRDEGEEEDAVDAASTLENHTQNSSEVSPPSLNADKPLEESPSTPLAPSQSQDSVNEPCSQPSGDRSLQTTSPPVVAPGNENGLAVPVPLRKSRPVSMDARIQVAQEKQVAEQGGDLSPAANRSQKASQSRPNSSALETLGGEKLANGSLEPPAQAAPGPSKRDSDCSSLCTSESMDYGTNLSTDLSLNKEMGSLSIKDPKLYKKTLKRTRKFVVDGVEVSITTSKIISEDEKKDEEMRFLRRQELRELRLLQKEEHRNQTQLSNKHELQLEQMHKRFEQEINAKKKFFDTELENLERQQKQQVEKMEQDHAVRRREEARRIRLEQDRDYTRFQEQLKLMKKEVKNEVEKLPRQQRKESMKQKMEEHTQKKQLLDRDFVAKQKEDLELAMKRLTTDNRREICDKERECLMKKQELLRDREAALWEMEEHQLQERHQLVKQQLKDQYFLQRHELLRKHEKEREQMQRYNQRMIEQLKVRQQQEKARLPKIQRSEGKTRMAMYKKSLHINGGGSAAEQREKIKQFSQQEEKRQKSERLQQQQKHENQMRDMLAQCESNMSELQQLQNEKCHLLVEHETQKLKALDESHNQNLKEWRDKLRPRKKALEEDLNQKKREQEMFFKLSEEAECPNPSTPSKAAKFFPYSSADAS
T5 sequence (O55098 whole entry): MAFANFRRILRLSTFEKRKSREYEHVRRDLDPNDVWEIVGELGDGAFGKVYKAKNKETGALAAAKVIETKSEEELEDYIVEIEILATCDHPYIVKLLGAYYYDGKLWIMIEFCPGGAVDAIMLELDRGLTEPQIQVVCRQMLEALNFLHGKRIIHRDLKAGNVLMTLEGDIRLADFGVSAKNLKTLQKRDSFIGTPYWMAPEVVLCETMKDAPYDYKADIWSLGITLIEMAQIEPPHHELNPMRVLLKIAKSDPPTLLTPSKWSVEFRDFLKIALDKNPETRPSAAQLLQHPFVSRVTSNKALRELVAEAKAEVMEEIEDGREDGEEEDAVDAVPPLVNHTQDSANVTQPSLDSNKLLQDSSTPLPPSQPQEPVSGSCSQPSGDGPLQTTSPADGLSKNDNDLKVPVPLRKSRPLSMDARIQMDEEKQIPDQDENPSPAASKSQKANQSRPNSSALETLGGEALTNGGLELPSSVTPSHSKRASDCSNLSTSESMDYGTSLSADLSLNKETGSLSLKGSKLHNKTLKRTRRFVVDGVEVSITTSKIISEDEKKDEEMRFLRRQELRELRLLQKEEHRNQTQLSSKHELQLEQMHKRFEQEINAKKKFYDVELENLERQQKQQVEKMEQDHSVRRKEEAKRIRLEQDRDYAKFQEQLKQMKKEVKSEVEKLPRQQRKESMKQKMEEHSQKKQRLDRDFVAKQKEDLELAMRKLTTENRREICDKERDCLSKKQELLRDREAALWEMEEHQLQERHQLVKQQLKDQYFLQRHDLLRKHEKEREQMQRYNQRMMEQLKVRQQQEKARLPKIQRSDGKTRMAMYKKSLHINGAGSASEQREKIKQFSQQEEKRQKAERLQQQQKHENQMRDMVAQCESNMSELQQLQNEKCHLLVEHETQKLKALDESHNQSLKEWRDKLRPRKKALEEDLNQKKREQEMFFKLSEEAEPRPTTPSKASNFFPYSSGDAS

Turning to `CC(C)CCN1c2nc(Nc3cc(F)c(O)c(F)c3)ncc2N(C)C(=O)C1C` (stereo not shown) [D1870, BI-D1870], the IC50 was 500 nM on GST-Lok, 250 nM at rSlk, […] with PLK1 [2] and 340 nM with Aurora B. In addition, the IL6 secretion entry with BMDC (setting [3]) is reported as “dose-dependent inhibition”. Also, the IL10 secretion entry in the assay on BMDC (setting [3]) is on record as “dose-dependent inhibition”. Also, the TNFα production result in the assay on BMDC (setting [3]) is on record as “not by D1870”. In the assay with BMDC (after 1 or 3 h of LPS stimulation, data not shown), the “mRNA levels of IL6 and IL10” value is given as “rapidly inhibited”. The “capture of Rsk2 on streptavidin beads” value at Rsk2 was “blocked”. In addition, at PLK1 [1], the “Recovery of PLK1 on streptavidin beads” value is given as “blocked”. The “kinase activity of Lok immunoprecipitated from DC” value on Lok was “substantially inhibited”. In addition, the “kinase activity of Slk immunoprecipitated from DC” value on Slk is “significantly blocked”. For the same compound, the “morphological changes in resting DC (cell spreading, focal adhesion, loss of podosomes)” value in the assay with DC is listed as “induced morphological changes”.
